Experimental data from patent publication US20240158368A1, “Pyrrolidine Main Protease Inhibitors as Antiviral Agents” (AbbVie Inc., priority 2022, published 2024).
Where two headings read alike, the source gives them in different places.

Key:
229E virus = experiment: organism not typed; type: cell-based; conditions: Huh-7, read-out: Antiviral 229E EC50 (μM)
in vitro [1] = conditions: rat, microsomes, pH 7.4
OC43 Mpro = OC43 Mpro (Human coronavirus OC43 (HCoV-OC43), UniProt P0C6X6); type: biochemical
229E Mpro = 229E Mpro (Human coronavirus 229E (HCoV-229E), UniProt P0C6X1); type: biochemical
MERS Mpro = MERS Mpro (Middle East respiratory syndrome-related coronavirus (isolate United Kingdom/H123990006/2012) (MERS-CoV) (Betacoronavirus England 1), UniProt K9N7C7); experiment: biochemical
in vitro [2] = conditions: human, microsomes, pH 7.4
in vitro [3] = conditions: PAMPA
SARS-CoV-2 Mpro = SARS-CoV-2 Mpro (Severe acute respiratory syndrome coronavirus 2 (2019-nCoV) (SARS-CoV-2), UniProt P0DTD1); type: biochemical
OC43 virus = experiment: microbe, parasite or virus in culture; type: cell-based; conditions: Betacoronavirus 1, OC43, Huh-7, read-out: Antiviral OC43 EC50 (μM)
[4] = system: SARS-CoV-2 (strain USA-WA1/2020); experiment: microbe, parasite or virus in culture; type: cell-based
SARS-CoV-1 Mpro = SARS-CoV-1 Mpro (Severe acute respiratory syndrome coronavirus (SARS-CoV), UniProt P0C6X7); type: biochemical
[5] = Severe acute respiratory syndrome coronavirus 2, HeLa-ACE2 cells, read-out: Antiviral CoV-2 EC50

Chain of OC43 Mpro (P0C6X6 3247-3549 limits assumed): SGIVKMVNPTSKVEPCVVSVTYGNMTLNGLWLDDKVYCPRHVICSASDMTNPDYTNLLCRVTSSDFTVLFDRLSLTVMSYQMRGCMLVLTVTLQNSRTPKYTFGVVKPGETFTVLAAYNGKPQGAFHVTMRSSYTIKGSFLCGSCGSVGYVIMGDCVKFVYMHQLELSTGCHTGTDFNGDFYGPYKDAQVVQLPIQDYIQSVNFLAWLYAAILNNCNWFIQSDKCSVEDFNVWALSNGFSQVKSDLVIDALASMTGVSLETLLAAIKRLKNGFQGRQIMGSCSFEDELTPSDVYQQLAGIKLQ
Chain of 229E Mpro (P0C6X1 2966-3267 limits assumed): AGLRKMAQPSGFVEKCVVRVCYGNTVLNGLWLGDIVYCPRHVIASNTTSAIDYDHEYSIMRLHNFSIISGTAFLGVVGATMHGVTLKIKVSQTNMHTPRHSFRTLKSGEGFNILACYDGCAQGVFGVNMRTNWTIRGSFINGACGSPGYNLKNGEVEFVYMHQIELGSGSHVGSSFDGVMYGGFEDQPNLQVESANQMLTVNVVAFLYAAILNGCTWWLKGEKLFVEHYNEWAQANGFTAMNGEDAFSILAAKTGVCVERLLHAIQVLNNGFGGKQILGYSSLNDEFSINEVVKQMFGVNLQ
Chain of MERS Mpro (K9N7C7 3248-3553 limits assumed): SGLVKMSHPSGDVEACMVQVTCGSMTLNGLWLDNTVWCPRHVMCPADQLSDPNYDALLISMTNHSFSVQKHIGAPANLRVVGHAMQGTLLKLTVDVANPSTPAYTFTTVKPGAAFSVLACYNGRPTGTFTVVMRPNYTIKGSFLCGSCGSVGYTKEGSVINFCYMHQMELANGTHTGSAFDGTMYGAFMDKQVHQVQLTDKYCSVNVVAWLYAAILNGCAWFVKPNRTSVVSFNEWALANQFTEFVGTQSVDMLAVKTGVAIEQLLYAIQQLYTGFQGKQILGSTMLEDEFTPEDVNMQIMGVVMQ

| SMILES | EC50 (229E virus) [µM] | CLint scaled (in vitro [1]) [mL/min/kg] | EC50 (OC43 Mpro) [nM] | EC50 (229E Mpro) [nM] | EC50 (MERS Mpro) [nM] | CLint scaled (in vitro [2]) [mL/min/kg] | Papp (in vitro [3]) [×10⁻⁶ cm/s] | EC50 (SARS-CoV-2 Mpro) [nM] | EC50 (OC43 virus) [µM] | EC50 [4, 5] [µM] | EC50 (SARS-CoV-1 Mpro) [nM] | EC50 ([4]; Severe acute respiratory syndrome coronavirus 2, HeLa-ACE2, read-out: Antiviral CoV-2 EC50 (μM)) [µM] |
| --- | --- | --- | --- | --- | --- | --- | --- | --- | --- | --- | --- | --- |
| COc1cc(F)cc2[nH]c(=O)cc(C(=O)N[C@@H]3CCN(c4c(C(=O)N5CCOCC5)cc(Br)cc4C(F)(F)F)C3)c12 [Compound 57] | 0.083 | 437 | 0.42 | 0.88 | 0.53 | 125 | 4.09 | 0.42 | 0.095 |  |  |  |
| Cc1cc(C(=O)N[C@@H]2CCN(c3c(C(=O)N4CCOCC4)cc(Br)cc3C(F)(F)F)C2)c(F)c(=O)[nH]1 [Compound 3, (R)—N-(1-(4-bromo-2-(morpholine-4-carbonyl)-6-(trifluoromethyl)phenyl)pyrrolidin-3-yl)-3-fluoro-6-methyl-2-oxo-1,2-dihydropyridine-4-carboxamide] |  | < 60 | 3.88 | 12.9 | 1.23 | < 36.7 | 5.84 | 0.63 |  | 0.0203 | 0.97 |  |
| COc1cccc2[nH]c(=O)cc(C(=O)N[C@@H]3CCN(c4c(C5CC5)ccc(F)c4C(=O)N4CCOCC4)C3)c12 [Compound 78] | 0.0481 | 418 | 1.45 | 1.99 | 2.31 | 188 | 2.46 | 1.42 | 0.0978 | 0.46 |  |  |
| COc1cccc2[nH]c(=O)cc(C(=O)N[C@@H]3CCN(c4c(C(=O)N5CCOCC5)cc(F)cc4C4CC4)C3)c12 [Compound 79] | 0.0284 | 235 | 0.76 | 2.42 | 1.51 | 31.7 | 2.98 | 0.42 | 0.02 | 0.0385 |  |  |
| O=C(N[C@@H]1CCN(c2c(C(=O)N3CC4CC(C3)O4)cc(Br)cc2C(F)(F)F)C1)c1cc(=O)[nH]c2c(F)cccc12 [Compound 65] |  | 258 | 1.29 | 2.76 | 1.54 | 93.3 | 16 | 0.42 |  |  | 1.86 | 0.0092 |
| O=C(N[C@@H]1CCN(c2c(C(=O)N3CCOCC3)cc(F)cc2C2CC2)C1)c1cc(=O)[nH]c2c(F)cccc12 [Compound 46] | 0.073 | 897 | 0.81 | 2.76 | 1.75 | 53.3 | 15.2 | 0.47 | 0.049 | 0.0209 |  |  |
| C[C@@H]1C[C@@H](NC(=O)c2cc(=O)[nH]c3c(F)c(F)ccc23)CN1c1c(C(=O)N2CCOCC2)cc(C#N)cc1C(F)(F)F [Compound 31] | 0.073 | 457 | 1.77 | 2.81 | 1.94 | 91.7 | 11.8 | 0.5 | 0.141 | 0.0088 |  |  |
| O=C(N[C@@H]1CCN(c2c(C(=O)N3CCOCC3)cc(F)cc2C(F)(F)F)C1)c1cc(=O)[nH]c2c(F)cc(F)cc12 [Compound 38] | 0.142 | 625 | 9.11 | 5.9 | 2.39 | 173 | 14.5 | 1.84 | 0.327 |  |  |  |
| COCCN1CCN(C(=O)c2cc(Br)cc(C(F)(F)F)c2N2CC[C@@H](NC(=O)c3cc(=O)[nH]c4c(F)cccc34)C2)CC1 [Compound 67] |  | 1180 | 1.52 | 4.22 | 1.5 | 313 | 16.3 | 0.5 |  |  | 2.56 |  |
| O=C(N[C@@H]1CCN(c2c(C(=O)N3CCN4CCOCC4C3)cc(Br)cc2C(F)(F)F)C1)c1cc(=O)[nH]c2c(F)cccc12 (some centres unmarked) [Compound 71] |  | 358 | 0.66 | 3.84 | 0.78 | 423 | 18.8 | 0.42 |  |  | 1.94 |  |
| CN1CCN(C(=O)c2cc(Cl)cc(C(F)(F)F)c2N2CC[C@@H](NC(=O)c3cc(=O)[nH]c4c(F)cccc34)C2)CC1 [Compound 37] |  | 423 | 1 | 2.53 | 1.22 | 150 | 6.23 | 0.63 |  | 0.0288 | 1.68 |  |
| C[C@@H]1C[C@@H](NC(=O)c2cc(=O)[nH]c3c(F)cccc23)CN1c1c(C(=O)N2CCOCC2)cc(C#N)cc1C(F)(F)F [Compound 30] | 0.011 | 303 | 0.58 | 1.25 | 1.04 | 61.7 | 13.3 | 0.42 | 0.029 |  |  |  |
| CN1CCN(C(=O)c2cc(Br)cc(C(F)(F)F)c2N2CC[C@@H](NC(=O)c3cc(=O)[nH]c4c(F)cccc34)C2)CC1 [Compound 63] |  | 722 | 0.91 | 1.99 | 1.06 | 357 | 5.6 | 0.56 |  | 0.0127 | 1.27 |  |
| NC(=O)c1cc(C(=O)N2CCOCC2)c(N2CC[C@@H](NC(=O)c3cc(=O)[nH]c4c(F)cccc34)C2)c(C(F)(F)F)c1 [Compound 35] |  | 46.7 | 16.5 | 2.6 | 0.93 | < 28.3 | 0.1 | 0.53 |  |  | 2.45 |  |
| O=C(N[C@@H]1CCN(c2c(C(=O)N3CCOCC3)cc(Cl)cc2C(F)(F)F)C1)c1c(F)c(=O)[nH]c2c(F)cccc12 [Compound 55] |  | 318 | 0.42 | 1.74 | 0.84 | 157 | 18.6 | 0.42 |  | 0.0046 | 0.56 |  |
| N#Cc1cc(C(=O)N2CCOCC2)c(N2C[C@H](NC(=O)c3cc(=O)[nH]c4c(F)cc(F)cc34)CC2=O)c(C(F)(F)F)c1 [Compound 33] |  | < 56.7 | 171 | 38.5 | 2.49 | < 35 | 1.12 | 0.92 |  | 0.174 |  |  |
| Cc1cc(C(=O)N[C@@H]2CCN(c3c(C(=O)N4CCOCC4)cc(C#N)cc3C(F)(F)F)C2)c(F)c(=O)[nH]1 [Compound 10] |  | < 50 | 12 | 7.63 | 1.5 | < 30 | 0.7 | 0.54 |  | 0.589 |  |  |
| O=C(N[C@@H]1CCN(c2c(C(=O)N3CCOCC3)cc(Br)cc2C(F)(F)F)C1)c1cc(=O)[nH]c2c(F)ccc(F)c12 [Compound 52] |  | 452 | 0.84 | 3.58 | 1.03 | 183 | 12.6 | 0.43 |  | 0.009 |  |  |
| Cc1cc(C(=O)N2CCOCC2)c(N2CC[C@@H](NC(=O)c3cc(C)[nH]c(=O)c3F)C2)c(C2CC2)c1 [Compound 60] |  |  | 1.22 | 5.14 | 1.4 | 66.7 | 2.95 | 0.48 |  | 0.18 | 0.74 |  |
| O=C(N[C@@H]1CCN(c2c(C(=O)N3CC4(COC4)C3)cc(Br)cc2C(F)(F)F)C1)c1cc(=O)[nH]c2c(F)cccc12 [Compound 73] |  | 327 | 1.13 | 5.79 | 1.69 | 117 | 11.7 | 0.53 |  | 0.0123 | 3.84 |  |
| Cc1cc(C(=O)N2CCOCC2)c(N2C[C@H](NC(=O)c3cc(=O)[nH]c4c(F)c(F)ccc34)CC2=O)c(C2CC2)c1 [Compound 75] |  | < 55 | 2.25 | 6.11 | 1.72 | < 33.3 | 2.46 | 0.63 |  | 0.0231 | 0.72 |  |
| N#Cc1cc(C(=O)N2CCOCC2)c(N2CC[C@@H](NC(=O)c3c(F)c(=O)[nH]c4c(F)cccc34)C2)c(C(F)F)c1 [Compound 39] |  | < 41.7 | 1.05 | 3.45 | 1.12 | < 25 | 4.71 | 0.42 |  | 0.0189 | 2.56 |  |
| O=C(N[C@@H]1CCN(c2c(C(=O)N3CCOCC3)cc(Br)cc2C(F)F)C1)c1c(F)c(=O)[nH]c2c(F)cccc12 [Compound 54] |  | 257 | 0.42 | 4.72 | 1.12 | 140 | 13.1 | 0.43 |  | 0.005 |  |  |
